Laboratory results: article PMC4991483 (Oncotarget, 2016)
“Also recorded” adds a separate entry of the source.

Key:
[1] = target: T1, purified STAT3 (Homo sapiens, UniProt P40763); experiment: In vitro kinetic labeling of purified STAT3 protein by fluorescent probe (SDS-PAGE fluorescence); type: biochemical; conditions: 100 μM, 0-4 h, 4°C
Description: 1 μg of purified STAT3 (SignalChem) protein was incubated with 100 μM 4a at 4°C. At the indicated time points the reaction was quenched with Laemmli loading buffer containing 1.43 M β-mercaptoethanol. Quenched samples were then subjected to 4-20% SDS-PAGE and imaged using the Chemi-Doc MP system (BIO-RAD). Following gel quantification (Image Lab software, BIO-RAD) the data points were plotted and visualized by GraphPad PRISM software.

[2] = target: T1, purified STAT3; experiment: Gel-based STAT protein isoform labeling, STAT3; type: biochemical; conditions: 100 μM, 16 h, 4°C
Description: (§1) 1.0 μg of purified STAT3, STAT5, and STAT1 (SignalChem) were incubated with 100 uM of 4a for 16 h at 4°C. Samples were subjected to 4-20% SDS-PAGE and imaged using the Chemi-Doc MP (BIO-RAD).

[3] = target: T2, purified STAT5 (Homo sapiens, UniProt P42229); experiment: Gel-based STAT protein isoform labeling, STAT5; type: biochemical; conditions: 100 μM, 16 h, 4°C
T2 construct: His; purchased SignalChem S56-54H
T2 sequence (P42229 1-794): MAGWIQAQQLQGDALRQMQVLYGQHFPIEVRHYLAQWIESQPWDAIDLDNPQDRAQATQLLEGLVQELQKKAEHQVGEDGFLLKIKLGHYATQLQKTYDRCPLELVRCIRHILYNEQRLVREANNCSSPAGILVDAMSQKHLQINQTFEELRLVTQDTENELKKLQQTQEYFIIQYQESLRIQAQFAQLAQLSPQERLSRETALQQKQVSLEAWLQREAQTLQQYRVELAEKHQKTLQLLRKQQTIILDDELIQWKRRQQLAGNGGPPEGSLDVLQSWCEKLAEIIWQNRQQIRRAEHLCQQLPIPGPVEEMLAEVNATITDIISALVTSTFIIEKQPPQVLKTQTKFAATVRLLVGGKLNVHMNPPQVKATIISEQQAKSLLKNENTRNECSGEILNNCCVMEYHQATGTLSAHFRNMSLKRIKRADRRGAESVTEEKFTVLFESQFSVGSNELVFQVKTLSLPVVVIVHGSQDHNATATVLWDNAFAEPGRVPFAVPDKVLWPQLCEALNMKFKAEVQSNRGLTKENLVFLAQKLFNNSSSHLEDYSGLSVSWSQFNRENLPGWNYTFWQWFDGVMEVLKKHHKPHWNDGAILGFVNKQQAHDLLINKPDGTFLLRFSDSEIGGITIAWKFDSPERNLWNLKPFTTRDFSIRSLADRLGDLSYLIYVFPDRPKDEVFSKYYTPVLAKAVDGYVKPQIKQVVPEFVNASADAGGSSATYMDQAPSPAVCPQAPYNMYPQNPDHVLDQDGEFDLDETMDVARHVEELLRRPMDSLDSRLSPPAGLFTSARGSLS
Description: as §1

[4] = target: T3, purified STAT1 (Homo sapiens, UniProt P42224); experiment: Gel-based STAT protein isoform labeling, STAT1; type: biochemical; conditions: 100 μM, 16 h, 4°C
T3 construct: GST; purchased SignalChem S52-54G
T3 sequence (P42224 1-712 isoform P42224-2): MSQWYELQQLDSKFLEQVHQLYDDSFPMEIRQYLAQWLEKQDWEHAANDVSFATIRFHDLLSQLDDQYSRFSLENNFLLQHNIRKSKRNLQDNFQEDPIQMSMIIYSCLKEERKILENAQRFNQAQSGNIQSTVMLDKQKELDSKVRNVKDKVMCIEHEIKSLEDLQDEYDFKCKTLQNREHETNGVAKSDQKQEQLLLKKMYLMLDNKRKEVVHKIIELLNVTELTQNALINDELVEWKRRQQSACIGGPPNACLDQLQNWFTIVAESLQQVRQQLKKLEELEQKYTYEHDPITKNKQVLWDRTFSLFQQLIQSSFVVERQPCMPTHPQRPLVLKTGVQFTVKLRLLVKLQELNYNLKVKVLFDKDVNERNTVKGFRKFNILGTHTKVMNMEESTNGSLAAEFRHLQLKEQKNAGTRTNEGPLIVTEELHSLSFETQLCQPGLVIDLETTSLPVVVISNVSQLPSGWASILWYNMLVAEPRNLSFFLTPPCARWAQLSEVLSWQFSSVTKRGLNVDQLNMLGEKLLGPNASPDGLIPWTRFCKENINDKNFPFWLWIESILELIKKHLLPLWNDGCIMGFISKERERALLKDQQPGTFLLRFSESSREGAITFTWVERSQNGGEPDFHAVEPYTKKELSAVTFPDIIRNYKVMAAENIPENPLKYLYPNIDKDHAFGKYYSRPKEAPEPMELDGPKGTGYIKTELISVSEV
Description: as §1

[5] = test system: MDA-MB-231 cell lysates; experiment: Fluorescent labeling of MDA-MB-231 whole cell lysates (SDS-PAGE); type: biochemical; conditions: for fluorescent labeling of protein content of cell lysates, O-tosyl vs sulfonamide probe: 100 μM
Description: (§2) To investigate the reactivity of 4a in cell lysates, 5 × 10^6 MDA-MB-231 cells were lysed with 200 μL RIPA buffer (Sigma-Aldrich). Lysates were treated with 0-500 μM of compound for 16 h at 4°C and subjected to 4-20% SDS-PAGE. To investigate the in cellulo activity 2 × 10^6 MDA-MB-231 cells were seeded in […] dishes. The following day cells were treated with 0-200 μM of 4a at 37°C, 5% CO2 for 6 h. Cells were lysed using 200 μL RIPA buffer (Sigma-Aldrich) and the lysates were subjected to 4-20% SDS-PAGE. Gels were visualized using the Chemi-Doc MP system. (BIO-RAD). Total protein levels were visualized using Coomassie Brilliant Blue stain. An identical protocol was performed for 4b for direct comparison with 4a.

[6] = test system: MDA-MB-231 cells; experiment: Live cell dosing of MDA-MB-231 cells, fluorescent protein labeling (SDS-PAGE); type: cell-based; conditions: 0, 50, 100, 200 μM, 6 h, 37°C
Description: as §2

[7] = test system: pSTAT3 in MDA-MB-231 cells; experiment: Immunoblotting for activated pSTAT3 levels in MDA-MB-231 cells; type: cell-based; conditions: increasing concentrations
Description: as §2
Lysates were reduced, boiled, subjected to 4-20% SDS-PAGE and transferred to LF-PVDF membranes. Membranes were blocked with 3% BSA and incubated with pSTAT3 (Abcam ab76315), STAT3 (Cell Signaling 4904) or B-Actin (Cell signaling 3700) at 4°C overnight. Membranes were then probed with either anti-mouse IgG Alexa Flour 488 (Cell Signaling 4408) or anti-rabbit IgG Alexa Fluor 647 (Cell Signaling 4414) for 1 h at room temperature. Membranes were visualized using the Chemi-Doc MP System (BIO-RAD).

[8] = HPLC-based glutathione (GSH) reactivity / chemical stability assay, 10 mM GSH with TCEP-HCl; conditions: 100 μM compound; for K (kobs), one phase decay / Tau, one phase decay: 10 mM TCEP-HCl, 50 mM HEPES pH 7.4; for reactivity with GSH: 10 h timescale
Description: (§3) From 10 mM compound stock solutions in DMSO 10 μL aliquots were transferred to an analytical HPLC vial containing 990 μL of reaction buffer (10.0 mM reduced GSH, 10.0 mM tris(2-carboxyethyl)phosphine hydrochloride (TCEP-HCl) and 50 mM HEPES buffered to pH 7.4) directly preceding 40.0 μL injections continued over a periodic time course. The process was automated by a Hewlett Packard Series 1100 analytical HPLC system fitted with an Agilent ZORBAX 3.5 μm Eclipse XDB-C18 column (23.0–24.0°C) under a linear elution gradient from H2O (double distilled and de-ionized to 18.2 MΩ cm) with 0.10 v/v % TFA to 100% HPLC grade CH3CN over 8.00 min followed by 2.00 min of sustained CH3CN under a 1.200 mL min^−1 flow rate. […] The data, measured in three replicates was fit to a one-phase exponential decay model (GraphPad PRISM) and kinetic parameters extracted from (1).
(1) A(t)=(A0−A∞)e^−kobs^t+A∞

[9] = test system: glutathione (GSH); experiment: physchem; conditions: HEPES buffer with reduced glutathione (GSH) and TCEP-HCl, pH 7.4
Description: as §3
(1) A(t)=(A0−A∞)e^−kobs^t+A∞

[10] = test system: STAT3; conditions: cited from earlier work
[11] = test system: activated STAT3 dimer; set-up: method as in PMID 21618433; conditions: STAT3 EMSA assay; read-out: inhibition of activated STAT3 dimerization; cited from earlier work
[12] = target: STAT3:DNA binding; conditions: approximate, reported value; read-out: approximate IC50 for the disruption of STAT3:DNA binding; cited from earlier work
[13] = target: recombinant, full-length STAT3 (Homo sapiens, UniProt P40763); experiment: Incubation of recombinant full-length STAT3 with S3I-201, tryptic digestion and LC-MS/MS; conditions: 500 μM S3I-201 (80-fold molar excess), 1 h, 37°C
Sequence of recombinant, full-length STAT3 (P40763 whole entry): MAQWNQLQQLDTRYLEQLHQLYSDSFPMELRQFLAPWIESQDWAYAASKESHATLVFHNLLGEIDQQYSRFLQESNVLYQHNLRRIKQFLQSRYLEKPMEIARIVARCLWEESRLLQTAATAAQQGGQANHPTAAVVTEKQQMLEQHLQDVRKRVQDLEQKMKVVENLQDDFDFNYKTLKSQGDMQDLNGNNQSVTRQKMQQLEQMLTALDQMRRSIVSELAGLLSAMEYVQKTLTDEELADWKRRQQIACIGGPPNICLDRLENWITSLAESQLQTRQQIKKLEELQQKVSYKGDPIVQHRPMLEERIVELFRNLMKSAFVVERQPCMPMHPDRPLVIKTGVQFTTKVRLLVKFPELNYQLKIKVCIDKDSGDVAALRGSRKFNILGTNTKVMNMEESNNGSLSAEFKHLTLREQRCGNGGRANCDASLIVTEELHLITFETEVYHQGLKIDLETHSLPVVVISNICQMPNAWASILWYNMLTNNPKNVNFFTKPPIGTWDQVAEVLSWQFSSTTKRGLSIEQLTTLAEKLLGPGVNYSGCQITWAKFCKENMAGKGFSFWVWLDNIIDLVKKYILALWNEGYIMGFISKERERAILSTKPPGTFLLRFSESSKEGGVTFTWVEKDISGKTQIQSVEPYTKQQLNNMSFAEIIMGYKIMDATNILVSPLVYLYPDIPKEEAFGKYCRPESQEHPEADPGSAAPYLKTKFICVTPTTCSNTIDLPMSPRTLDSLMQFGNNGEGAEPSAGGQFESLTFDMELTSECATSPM
Description: The incubation was then quenched by the addition of dithiothreitol (DTT) to a final concentration of 0.5 mM and incubation at 55°C for 30 min. Free sulfhydryl groups were alkylated with 2-iodoacetamide (Sigma) at a final concentration of 1.5 mM for 45 min at room temperature. The samples were subjected to trypsin (Promega) digestion (0.5 μg of trypsin per reaction), lyophilized, re-suspended in 0.1% formic acid, and desalted using ZipTip C18 (EMD Millipore) prior to analysis. Samples were analyzed by LC-MS/MS on a nanoLC ultra HPLC system (Eksigent) coupled to a Thermo Scientific Orbitrap-Elite.
The aqueous and organic mobile phases consisted of 0.1% formic acid in water or CH3CN respectively. Organic mobile phase composition was varied over each hour long LC-MS/MS analysis as follows: 2% from 0 to 1 min, 10% to 35% from 1 to 35 min, 80% from 35.5 to 44.5 min, 2% from 45 to 60 min.

T1 sequence (P40763 whole entry): as above

half-life at 100 μM [9] [h]	reactivity with GSH [8]	SMILES	K (kobs), one phase decay [8]	Tau, one phase decay [8]	other results
–	–	Cc1ccc(S(=O)(=O)OCC(=O)N(Cc2cn(CCOCCOCCOCCNS(=O)(=O)c3cccc4c(N(C)C)cccc34)nn2)c2ccc(C(=O)O)c(O)c2)cc1 [4a]	–	–	fluorescent labeling of purified STAT3 over time course [1]: time dependent increase in fluorescent signal; fluorescent labeling of purified STAT3 [2]: non-specific fluorescent labeling of all three STAT isoforms; fluorescent labeling of purified STAT5 [3]: non-specific fluorescent labeling of all three STAT isoforms; fluorescent labeling of purified STAT1 [4]: non-specific fluorescent labeling of all three STAT isoforms; fluorescent labeling of protein content of cell lysates ([5]; 0, 100, 250, 500 μM, 16 h, 4°C): pronounced, non-specific, global labeling of the protein content; fluorescent labeling of protein content of cell lysates, O-tosyl vs sulfonamide probe [5]: promiscuously modified; fluorescent labeling of intracellular proteins in whole cells [6]: increasing levels of fluorescent intensities following the dose of reporter; fluorescent labeling of intracellular proteins in whole cells ([6]; listed as DB-6-055): non-specifically and globally alkylated intracellular proteins; pSTAT3 levels (immunoblot) [7]: dose-dependent decrease in pSTAT3 levels
–	–	Cc1ccc(S(=O)(=O)NCC(=O)N(Cc2cn(CCOCCOCCOCCNS(=O)(=O)c3cccc4c(N(C)C)cccc34)nn2)c2ccc(C(=O)O)c(O)c2)cc1 [4b]	–	–	fluorescent labeling of protein content of cell lysates, O-tosyl vs sulfonamide probe [5]: no observable fluorescent enhancement
–	–	CN(CC(=O)N(Cc1ccc(C2CCCCC2)cc1)c1ccc(C(=O)O)c(O)c1)S(=O)(=O)c1c(F)c(F)c(F)c(F)c1F [BP-1-102]	0.5322 h⁻¹	1.879	–
5.14	negligible reactivity with GSH	Cc1ccccc1CN(CC(=O)N(Cc1ccc(C2CCCCC2)cc1)c1ccc(C(=O)O)c(O)c1)S(=O)(=O)c1ccc(C(F)(F)F)cc1 [BP-5-087]	0.1348 h⁻¹	7.417	–
25400	no reactivity toward GSH	Cc1ccc(S(=O)(=O)NCC(=O)Nc2ccc(C(=O)O)c(O)c2)cc1 [DB-5-112]	2.725e-05 h⁻¹	36701	–
–	–	C[C@@H]1C=C2C(=O)O[C@@H]3CC[C@H](C1)[C@]23O [Galiellalactone]	–	–	cysteine residues of STAT3 covalently modified (MS/MS analysis) [10]: covalently modified three cysteine residues (367, 468, and 542)
–	–	Cc1ccc(S(=O)(=O)OCC(=O)Nc2ccc(C(=O)O)c(O)c2)cc1 [S3I-201]	2.735 h⁻¹	0.3657	IC50 [11]: 86 µM; IC50 [12]: ~100 µM; cysteine residues of STAT3 covalently modified (LC-MS/MS) [13]: covalently modified Cys108, Cys259, Cys367, Cys542, and Cys687; also recorded: five specific sites of modification, cysteine's 108, 259, 367, 542, and 687; also recorded: Cys residues (418, 426, and 712) were not alkylated
~0.0409	negligible reactivity with GSH	Cc1ccc(S(=O)(=O)N(C)CC(=O)N(Cc2ccc(C3CCCCC3)cc2)c2ccc(C(=O)O)c(O)c2)cc1 [SF-1-066]	~ 16.95 h^−1	~ 0.05898	–
–	–	CN(CC(=O)N(Cc1ccc(C2CCCCC2)cc1)c1ccc(C(=O)O)cc1)S(=O)(=O)c1c(F)c(F)c(F)c(F)c1F [SH-4-054]	0.5147 h⁻¹	1.943	–
–	–	O=[N+]([O-])c1ccc2c(c1)S(=O)(=O)C=C2 [Stattic]	–	–	cysteine residues of STAT3 modified [10]: Cys251, 259, 367, and 426
